According to patent publication US11826372B2, “Combinations including ABX196 for the treatment of cancer” (ABIVAX, priority 2016, dated 2023):
Like-named read-outs stand apart in the source and are kept apart here.

Legend:
Melanoma B16F10 tumor = settings: for T/C (antitumor activity index): B16F10 in C57BL/6 mice, ABX196 100 ng i.v. or 10 ng i.t. Day 10, anti-PD-1 mAb 100 μg i.p. Days 6, 9, 12, 15 and 18
Method: The study was performed on a syngeneic in vivo melanoma B16F10 tumor-bearing mouse model. B16F10 tumor cells were subcutaneously inoculated in immuno-competent C57BL/6 mice.
Melanoma B16F10 tumor cells were subcutaneously inoculated at day 0 by injecting cells in the flank of 8-10 weeks-old female C57BL/6 mice, and animals were then randomly assigned into control (vehicle PBS-treated) and treatments groups.
For the anti-PD-1 antibodies treatment, mice were intraperitoneally (IP) injected with anti-PD-1 antibodies at Day 6, 9, 12, 15 and 21. Furthermore, ABX196 was administered at 1 dose, intravenously or intratumorally, with one administration at Day 10 when mean of tumor size reached 100 mm^3.
The animal pharmacological groups for anti-tumor efficacy assessment were organized as such: • Control vehicle-treated group (PBS according to anti-PD-1 treatment schedule) • Anti-PD-1-treated group (at 1 dose, intraperitoneal administration) • ABX196-treated group (at 1 dose, Intravenous (iv) administration at Day10) • Combination-treated group (ABX196 at 1 dose, Intravenous (iv) administration at Day10 in combination with anti-PD-1 antibodies at 1 dose, intraperitoneal (ip) administration) • ABX196-treated group (at 1 dose, Intratumoral (it) administration at Day10) • Combination-treated group (ABX196 at 1 dose, Intratumoral (it) administration at Day10 in combination with anti-PD-1 antibodies at 1 dose, intraperitoneal (ip) administration)
Tumor volume and body weight of the animals were measured and recorded three times per week. A tumor volume exceeding 2000 mm3 or a weight loss greater than 15% relative to the initial weight of the animal were considered as endpoints.
B16F10 cells were implanted subcutaneously in the right flank of C57BL/6 immunocompetent mice (8 week-old female). The implantation procedure was as follows (all steps were carried out under sterile laminar flow conditions):
Mice (body weight around 20 g) were anesthetized with an intraperitoneal injection of 90 μL of anesthetic (ie 1.5 mg/Kg Ketamine and Xylazine 150 μg/Kg). The cells to be implanted were resuspended in sterile PBS and the volume needed to implant was loaded in 1 ml syringe with a needle (1,000,000 cells/100 μL).
Anti-PD-1 monoclonal antibodies (a-PD-1) treatment schedule was applied, at 100 μg by i.p. injection. Treatment was repeated 4 times, at Days 6, 9, 12, 15 and 18.
ABX196 was administered at Day 10 either: • by intravenous (i.v) injection at the dose of 100 ng per mouse; or • by intratumoral (i.t) injection at the dose of 10 ng per mouse
Starting from day 6 after B16F10 cell inoculation, all experimental animal groups were monitored 3 times per week over a 4 weeks period for the following parameters: • Tumor size: measured by physical examination, 3 times per week, • Body weight: monitored 3 times per week, and • Survival: represented in a Kaplan-Meier plot.

CT-26 Colorectal Cancer = test: Antitumor activity of ABX196 alone or with anti-PD-1 antibody in mice bearing subcutaneous CT-26 colorectal cancer (Example 6); format: in vivo, mouse; settings: CT-26 in BALB/c mice; ABX196 100 ng IV Q1Dx1; anti-PD-1 Ab 10 mg/kg IP TWx2
Method: Body weights were measured twice a week.

Hepa 1-6 Hepatocarcinoma = settings: for Fraction alive / Fraction without detectable metastasis: Day 61, orthotopic Hepa 1-6 in C57BL/6 mice; for Tumor invasion of the liver at day 20, Dunn's multiple comparisons test vs Vehicle: Mean rank diff.: ABX196 100 ng IV D5, sorafenib 100 mg/kg PO Q1Dx21, doxorubicin 12 mg/kg IV D5, anti-PD-1 10 mg/kg IP D7/D10/D14/D17
Method: Tumor invasion was evaluated semi-quantitively by a visual evaluation of the percentage of tumor in the entire liver.
One million (1×106) of tumor cells in 50 μL of RPMI 1640 medium were transplanted via intra-splenic injection into 100 C57BL/6 mice. Briefly, a small left subcostal flank incision was made. Spleen was exteriorized. The spleen was exposed on the sterile gauze pad, and injected under visual control with the cell suspension with a 27-gauge needle. After the cell inoculation, the spleen was excised. The day of tumor cell injection was considered as DO.
The treatment started at D5. Ninety-nine animals (99) out of one hundred (100) were randomized according to their individual body weight into 3 groups of 13 animals and 5 groups of 12 animals using Vivo Manager® software (Biosystemes, Couternon, France). A statistical test (analysis of variance, ANOVA) was performed to test for homogeneity between groups. The treatment schedule was as follows: • Animals from group 1 received one IV injection of ABX196 vehicle at day 5, • Animals from group 2 received one daily PO administration of sorafenib at 100 mg/kg/adm for 21 consecutive days, starting at day 5, • Animals from group 3 received one IV injection of 100 ng of ABX196 on day 5 and one daily PO administration of sorafenib at 100 mg/kg/adm for 21 consecutive days, starting at day 5, • Animals from group 4 received one IV injection of Doxorubicin at 12 mg/kg on day 5, • Animals from group 5 received one IV injection of 100 ng of ABX196 and one IV injection of Doxorubicin at 12 mg/kg on day 5, • Animals from group 6 received 4 IP administrations of anti-PD-1 antibody on day 7, 10, 14 and 17 (Twice weekly×2), • Animals from group 7 received one IV injection of 100 ng of ABX196 on day 5 and 4 IP administrations of anti-PD-1 antibody on day 7, 10, 14 and 17 (Twice weekly×2).
At D19 and D20, 5 mice per group from group 1 to 8 were imaged (40 animals per day). A semi-quantitative analysis was then performed.
At the time of final mice termination (around D60), liver was weighted. The number of metastases was evaluated macroscopically and the localization, the appearance (shape, colour, consistency) and the size of each of them was recorded. Macroscopic photography of the liver was taken.
The treatment efficacy was assessed in terms of the effects of the test substance on the tumor volumes of treated animals relative to control animals. The following evaluation criteria of antitumor efficacy were determined: • Individual and/or mean (or median) measurement at D19-20 of tumor invasion within the liver using MRI imaging, • Measurement of circulating a-Fetoprotein in the plasma at D22, • Liver weight measured at termination, • Survival curves, • Median survival times.
Statistical analysis of tumor invasion between vehicle and each group at day 20.
Pair wise comparison with Dunn's test

[1] = MBT-2 in C3H/HeJ mice, ABX196 100 ng IV Q1Dx1, anti-PD-1 Ab 10 mg/kg IP TWx2
[2] = Unpaired t test two tailed, with Welch's correction, listed as ABX196 i.t
[3] = Unpaired t test two tailed, with Welch's correction, listed as ABX196 i.v

Method for B16-F10 melanoma: Tumor was induced by subcutaneous injection of 1×10^6 of B16-F10 cells in 200 μL of PBS buffer into the right flank of 95 C57BL/6 female animals. The day of tumor cell injection in the right flank was considered as D0.
On D3, 90 out of ninety-five 95 were then randomized according to their body weight into 6 groups each of 15 animals (groups 1-6).
The viability and behavior were recorded every day. Body weights were measured twice a week until injection of tumor cells then thrice a week. The length and width of the tumor were measured thrice a week with calipers and the volume of the tumor was estimated by the formula:
The treatment efficacy was assessed in terms of the effects of the vaccine composition on the tumor volumes of treated animals relative to control animals. The following evaluation criteria of antitumor efficacy was determined using Vivo Manager® software (Biosystemes, Couternon, France): • Individual, mean and median tumor volumes were provided, • The number of tumor-free mice was provided.
Mice survival was also monitored and used as an efficacy parameter. Survival curves were drawn.
Percent treated/control (T/C (%) index) is calculated by dividing the median treated tumor volume by the median control tumor volume on day 14 and multiplying by 100. A T/C % equal or less than 42% is considered significant antitumor activity by the drug evaluation branch of the division of cancer treatment (NCI).
Tumor growth inhibition is also reflective to the antitumor effectiveness and is calculated following the formula:
Mean tumor volumes at defined times were analyzed with the GrapadPrism Software (Version 6.07) using the Kruskall-Wallis test for all the treatments. A significant difference between all treatments (P<0.05) was followed by pairwise comparisons using the Dunn's multiple comparison test. Survival was analyzed using the Log-rank (Mantel-Cox) test with GrapadPrism Software (Version 6.07). A significant difference between all treatments (P<0.05) was followed by pairwise comparisons using the Log-rank (Mantel-Cox) test.
Method for MBT-2 Bladder Cancer: ABX196 was administered at the dose of 100 ng per mouse. The anti-PD-1 antibody was administered at the dose of 10 mg/kg.
MBT-2 tumors were induced by subcutaneous injection of 1×10^6 cells in 200 μL of RPMI 1640 into the right flank of sixty-eight (68) female animals.
The treatment started when the tumors reached a mean volume of 80-120 mm^3. […] A statistical test (analysis of variance, ANOVA) was performed to test for homogeneity between groups. The treatment schedule was as follows: • Animals from group 1 received an IV injection of ABX196 vehicle and an IP injection of anti-PD-1 antibody vehicle, • Animals from group 2 received an IV injection of 100 ng of ABX196, • Animals from group 3 received twice weekly administrations of anti-PD-1 antibody, • Animals from group 4 received an IV injection of 100 ng of ABX196 and twice weekly administrations of anti-PD-1 antibody.
The viability and behavior were recorded every day. Body weights were measured twice a week. The length and width of the tumor were measured twice a week with calipers and the volume of the tumor was estimated by the formula:
All statistical analyses were performed using Vivo Manager® software (Biosystemes, Couternon, France). Statistical analysis of mean body weights, MBWC, mean tumor volumes at randomization, mean tumor volumes V, mean times to reach V and mean tumor doubling times were performed using ANOVA. Pairwise tests were performed using the Bonferroni/Dunn correction in case of significant ANOVA results. The log-Rank (Kaplan-Meier) test was used to compare the survival curves. A p value <0.05 was considered as significant.

## CCCCCCCCCCCCCCCCCCCCCCCC(=O)N[C@@H](CO[C@H]1O[C@H](CNC(C)=O)[C@H](O)[C@H](O)[C@H]1O)[C@H](O)[C@H](O)CCCCCCCCCCCCCC [ABX196]
MBT-2 Bladder Cancer; MBT-2, Log-Rank (Mantel-cox) test, vs ABX196 + Anti-PD-1
  Statistical analysis of mice survival, pairwise p vs ABX196 + Anti-PD-1: ***0.0002
MBT-2 Bladder Cancer; MBT-2, Log-Rank (Mantel-cox) test, vs Vehicle
  Statistical analysis of mice survival, pairwise p vs Vehicle: *0.02
MBT-2 Bladder Cancer; MBT-2 bearing mice, ABX196 100 ng IV, anti-PD-1 Ab 10 mg/kg IP TWx2
  Median Survival: 27 days
MBT-2 Bladder Cancer; [1]
  T/C (antitumor activity index): 57
  TGI (antitumor activity index): 43
Melanoma B16F10 tumor; B16F10 bearing mice, FIGS. 5 and 6
  Effect on tumor volume (in words): transient effect
Melanoma B16F10 tumor; listed as ABX196 it
  T/C (antitumor activity index): 53
Melanoma B16F10 tumor; listed as ABX196 iv
  T/C (antitumor activity index): 51
Melanoma B16F10 tumor; Unpaired t test two tailed, with Welch's correction, vs ABX196 i.v
  Mean Tumor Volume at Day 17 (p value) vs ABX196 i.v: 0.0554
Melanoma B16F10 tumor; [2]
  Mean Tumor Volume at Day 17 (p value) vs Vehicle: 0.8942
  Mean Tumor Volume at Day 17 (p value) vs αPD-1: 0.2031
Melanoma B16F10 tumor; [3]
  Mean Tumor Volume at Day 17 (p value) vs Vehicle: 0.2838
  Mean Tumor Volume at Day 17 (p value) vs αPD-1: 0.7081
Melanoma B16F10 tumor; Unpaired t test two tailed, with Welch's correction, vs αPD-1 + ABX196 i.v
  Mean Tumor Volume at Day 17 (p value) vs αPD-1 + ABX196 i.v: <0.0001
Melanoma B16F10 tumor; vs αPD-1 + ABX196 i.v
  Mean Tumor Volume at Day 17 (Significativity) vs αPD-1 + ABX196 i.v: **** (****p < 0.0001)
CT-26 Colorectal Cancer
  T/C (antitumor activity index): 51
  TGI (antitumor activity index): 72

## COc1cccc2c1C(=O)c1c(O)c3c(c(O)c1C2=O)C[C@@](O)(C(=O)CO)C[C@@H]3O[C@H]1C[C@H](N)[C@H](O)[C@H](C)O1 [Doxorubicin, doxorubicin]
B16-F10 melanoma; B16-F10 tumors in C57BL/6 mice, FIGS. 1 and 3
  Tumor growth in comparison to the vehicle-treated group (in words): weak and non-significant
B16-F10 melanoma; C57BL/6 mice, s.c. B16-F10 (1×10^6 cells), CL II-TRP2/ABX196 50 μg/1 μg IV D3, anti-PD-1 Ab 10 mg/kg IP D10/D14/D17/D21, doxorubicin 12 mg/kg IV D7
  Median Survival: 21 days
B16-F10 melanoma; D17, Dunn's multiple comparison test, vs TRP2-ABX196
  Statistical analysis of tumor growth at D17, pairwise comparison with TRP2-ABX196: ns
B16-F10 melanoma; D17, Dunn's multiple comparison test, vs TRP2-ABX196 + Doxo.
  Statistical analysis of tumor growth at D17, pairwise comparison with TRP2-ABX196 + Doxo.: * (*P < 0.05)
B16-F10 melanoma; D17, Dunn's multiple comparison test, vs TRP2-ABX196 + α-PD-1
  Statistical analysis of tumor growth at D17, pairwise comparison with TRP2-ABX196 + α-PD-1: ns
B16-F10 melanoma; D17, Dunn's multiple comparison test, vs Vehic.
  Statistical analysis of tumor growth at D17, pairwise comparison with Vehic.: ns
B16-F10 melanoma; D17, Dunn's multiple comparison test, vs α-PD-1
  Statistical analysis of tumor growth at D17, pairwise comparison with α-PD-1: ns
B16-F10 melanoma; D19, Dunn's multiple comparison test, vs TRP2-ABX196
  Statistical analysis of tumor growth at D19, pairwise comparison with TRP2-ABX196: ns
B16-F10 melanoma; D19, Dunn's multiple comparison test, vs TRP2-ABX196 + Doxo.
  Statistical analysis of tumor growth at D19, pairwise comparison with TRP2-ABX196 + Doxo.: * (*P < 0.05)
B16-F10 melanoma; D19, Dunn's multiple comparison test, vs TRP2-ABX196 + α-PD-1
  Statistical analysis of tumor growth at D19, pairwise comparison with TRP2-ABX196 + α-PD-1: ns
B16-F10 melanoma; D19, Dunn's multiple comparison test, vs Vehic.
  Statistical analysis of tumor growth at D19, pairwise comparison with Vehic.: ns
B16-F10 melanoma; D19, Dunn's multiple comparison test, vs α-PD-1
  Statistical analysis of tumor growth at D19, pairwise comparison with α-PD-1: ns
B16-F10 melanoma; Log-rank (Mantel-Cox) test, listed as printed as α-PD-1
  Statistical analysis of mice survival, pairwise P vs α-PD-1 (row head as printed): 0.624
B16-F10 melanoma; Log-rank (Mantel-Cox) test, vs Vehicle
  Statistical analysis of mice survival, pairwise P vs Vehicle: 0.0015
B16-F10 melanoma; day 14, median treated / median control tumor volume ×100, B16-F10 in C57BL/6 mice
  T/C (anti-tumor activity index): 56.3%
Hepa 1-6 Hepatocarcinoma
  Fraction alive: 9/12
  Fraction without detectable metastasis: 9/12
Hepa 1-6 Hepatocarcinoma; MRI, day 20
  Tumor invasion of the liver at day 20, Dunn's multiple comparisons test vs Vehicle: Mean rank diff.: 28.52
Hepa 1-6 Hepatocarcinoma; MRI, day 20, vs Vehicle
  Tumor invasion of the liver at day 20, Dunn's multiple comparisons test vs Vehicle: Significant?: Yes

## CNC(=O)c1cc(Oc2ccc(NC(=O)Nc3ccc(Cl)c(C(F)(F)F)c3)cc2)ccn1 [Sorafenib]
Hepa 1-6 Hepatocarcinoma
  Fraction alive: 5/13
  Fraction without detectable metastasis: 5/13
Hepa 1-6 Hepatocarcinoma; MRI, day 20
  Tumor invasion of the liver at day 20, Dunn's multiple comparisons test vs Vehicle: Mean rank diff.: 8.644
Hepa 1-6 Hepatocarcinoma; MRI, day 20, vs Vehicle
  Tumor invasion of the liver at day 20, Dunn's multiple comparisons test vs Vehicle: Significant?: No
  Tumor invasion of the liver at day 20, Dunn's multiple comparisons test vs Vehicle: Summary: ns
